Experimental data as given in article PMC9246766 (Pharmaceutical research, 2022).
Where two headings read alike, the source gives them in different places.

Legend:
OCT3 [1] = biological target: T1, OCT3 (Homo sapiens, UniProt O75751); assay: IC50 determination against OCT3-mediated [14C]metformin uptake in HEK-293 cells overexpressing OCT3; type: cell-based
T1 sequence (O75751 1-556): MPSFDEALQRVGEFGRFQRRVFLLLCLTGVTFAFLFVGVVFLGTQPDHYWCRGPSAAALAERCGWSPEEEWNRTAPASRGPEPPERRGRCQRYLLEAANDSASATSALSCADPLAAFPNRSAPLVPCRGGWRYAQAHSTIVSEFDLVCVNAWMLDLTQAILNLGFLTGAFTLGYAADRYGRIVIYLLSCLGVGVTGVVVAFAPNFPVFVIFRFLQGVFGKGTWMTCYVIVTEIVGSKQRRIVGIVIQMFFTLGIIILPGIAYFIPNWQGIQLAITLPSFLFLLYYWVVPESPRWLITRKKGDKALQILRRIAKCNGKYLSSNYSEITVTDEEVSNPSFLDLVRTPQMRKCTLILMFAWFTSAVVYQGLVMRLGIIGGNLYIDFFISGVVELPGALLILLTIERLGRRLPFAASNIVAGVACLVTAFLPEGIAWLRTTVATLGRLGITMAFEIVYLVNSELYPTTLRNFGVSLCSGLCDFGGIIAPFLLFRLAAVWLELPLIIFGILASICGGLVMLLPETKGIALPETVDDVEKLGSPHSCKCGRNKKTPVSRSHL

OCT3 [2] = biological target: T1, OCT3; assay: IC50 determination against OCT3-mediated ASP+ uptake in HEK-293 cells overexpressing OCT3; type: cell-based
OCT3 [3] = biological target: T1, OCT3; assay: High throughput screen: inhibition of OCT3-mediated ASP+ uptake in HEK-293 cells stably expressing OCT3; type: cell-based; conditions: for inhibition at 20 µM: HEK293
OCT3 [4] = biological target: T1, OCT3; assay: Predicted DDI potential: ratio of plasma CMAX (total or unbound) to predicted OCT3 IC50; conditions: unbound plasma CMAX over predicted OCT3 IC50
[5] = total maximum plasma concentration; ref http://www.micromedexsolutions.com/; cited from earlier work
[6] = plasma protein binding used for unbound CMAX; source not given; cited from earlier work
[7] = cited from earlier work; for FDA product insert: warnings, precautions and major adverse reactions: cardiovascular / CNS related, ref FDA product insert

Work on `N=C(N)NC(=O)c1nc(Cl)c(N)nc1N` [amiloride] yielded an IC50 (OCT3 [1]) of 3 µM and an IC50 (OCT3 [2]) of 14.5 µM.
With `CC1(C)S[C@@H]2[C@H](NC(=O)[C@H](NC(=O)N3CCNC3=O)c3ccccc3)C(=O)N2[C@H]1C(=O)O` [azlocillin] the IC50 (OCT3 [3]) was 9.9 µM, the inhibition at 20 µM (OCT3 [3]) was 66.9% and the “Unbound CMAX/IC50” value (OCT3 [4]) was 1.23. The Cmax [5] was 17300 nM and the Protein binding [6] was 30%.
In the case of `C[C@H]1[C@H](NC(=O)/C(=N\OC(C)(C)C(=O)O)c2csc(N)n2)C(=O)N1S(=O)(=O)O` [aztreonam], the IC50 (OCT3 [3]) is given as < 5 µM, the inhibition at 20 µM (OCT3 [3]) is given as 87.1% and the “FDA product insert: warnings, precautions and major adverse reactions” value (“FDA product insert: warnings” below) [7] is given as “warnings and precautions related to cardiovascular side-effects”. The “FDA product insert: warnings” value ([7]; listed as Aztreonam) was “Adverse reaction: Cardiovascular—hypotension, transient ECG changes (ventricular bigeminy and PVC), flushing. Nervous System—seizure, confusion, vertigo, paresthesia, insomnia, dizziness”, the Neurological side effects ([7]; stated in discussion, ref Table SII, 60) was “neurological side effects” and the Cmax [5] was 585000 nM. For the same compound, the Protein binding [6] was 56%.
`COc1ccccc1OCCNCC(O)COc1cccc2[nH]c3ccccc3c12` (centres unmarked) [carvedilol] showed an IC50 (OCT3 [2]) of 19.7 µM.
`[H]/N=C(\N/C(=N/[H])NCCCCCCNC(=N)NC(=N)Nc1ccc(Cl)cc1)Nc1ccc(Cl)cc1` [chlorhexidine] gave an IC50 (OCT3 [1]) of 0.4 µM and an IC50 (OCT3 [2]) of 3.7 µM.
For `O=C1CCc2cc(OCCCCc3nnnn3C3CCCCC3)ccc2N1` [cilostazol], the IC50 (OCT3 [3]) is listed as < 5 µM, the inhibition at 20 µM (OCT3 [3]) is listed as 93.8% and the “Neurological Effects (from Literature)” value ([7]; ref Pubmed ID of Table SII) is listed as “Cilostazol attenuated blood–brain barrier leakage, Cilostazol (CSZ) was recently found to suppress the progression of cognitive decline in patients with stable AD receiving acetylcholinesterase inhibitors”. The Cmax [5] was 2100 nM and the Protein binding [6] was 95%.
With `CNCCCN1c2ccccc2CCc2ccccc21` [desipramine] the IC50 (OCT3 [2]) was 177 µM and the inhibition at 20 µM (OCT3 [2]; HEK293, read-out: Inhibition of OCT3 activity at 20 μM) was < 50%.
Compound `COc1cc2nc(N3CCN(C(=O)C4COc5ccccc5O4)CC3)nc(N)c2cc1OC` (centres unmarked) [doxazosin] has an IC50 (OCT3 [2]) of 5.6 µM.
In the case of `CC[C@H]1CN2CCc3cc(OC)c(OC)cc3[C@@H]2C[C@@H]1C[C@H]1NCCc2cc(OC)c(OC)cc21` [emetine], the IC50 (OCT3 [3]) is listed as < 5 µM, the inhibition at 20 µM (OCT3 [3]) is listed as 82.7% and the Cmax [5] is listed as 600 nM. The Protein binding [6] was 90%.
For `C=C1C[C@@H]2[C@H](CC[C@]3(C)C(=O)CC[C@@H]23)[C@@]2(C)C=CC(=O)C=C12` [exemestane], the IC50 (OCT3 [3]) is listed as < 5 µM, the inhibition at 20 µM (OCT3 [3]) is listed as 94.5% and the “FDA product insert: warnings” value [7] is listed as “No warnings and precautions regarding to cardiovascular, CNS”. For the same compound, the Cmax [5] was 1400 nM and the Protein binding [6] was 90%.
With `O=C(O)c1ccccc1Nc1cccc(C(F)(F)F)c1` [flufenamic acid] the IC50 (OCT3 [3]) was 13 µM, the inhibition at 20 µM (OCT3 [3]) was 60.6% and the “Unbound CMAX/IC50” value (OCT3 [4]) was 0.19. The Cmax [5] was 24200 nM and the Protein binding [6] was 90%.
For `CCC1=C(C)CN(C(=O)NCCc2ccc(S(=O)(=O)NC(=O)N[C@H]3CC[C@H](C)CC3)cc2)C1=O` [glimepiride], the IC50 (OCT3 [3]) is given as < 5 µM, the inhibition at 20 µM (OCT3 [3]) is given as 87.7% and the “FDA product insert: warnings” value [7] is given as “No warnings and precautions regarding to cardiovascular, CNS. However, oral hypoglycemic reagents are known to increase cardiovascular mortality which may be due to hypoglycemia incidence”. For the same compound, the Cmax [5] was 1200 nM and the Protein binding [6] was 99%.
`N=C(N)N/N=C/c1c(Cl)cccc1Cl` [guanabenz] showed an IC50 (OCT3 [1]) of 1.1 µM and an IC50 (OCT3 [2]) of 3.2 µM.
For `Cc1ccc(NC(=O)c2ccc(CN3CCN(C)CC3)cc2)cc1Nc1nccc(-c2cccnc2)n1` [imatinib], the Cmax [5] is given as 1200 nM.
